Test results: the supplement of paper PMC13380429

How the values were obtained:
Details in all cases: 72 h
[1] = system: Caco-2; assay: cell viability relative to DMSO; higher = less toxic
[2] = system: Calu-3; assay: as above
[3] = system: HepG2; assay: as above
[4] = system: U2OS; assay: as above
[5] = system: Vero E6; assay: as above
[6] = system: Caco-2; assay: relative viability EC50 (midpoint between 100% and the lowest measured viability); higher = less toxic
[7] = system: Calu-3; assay: as above
[8] = system: HepG2; assay: as above
[9] = system: U2OS; assay: as above
[10] = system: Vero E6; assay: as above
[11] = system: Caco-2; assay: drug sensitivity score (DSS) for viability; higher = more toxic; extreme values may be limits of the assay
[12] = system: Calu-3; assay: as above
[13] = system: HepG2; assay: as above
[14] = system: U2OS; assay: as above
[15] = system: Vero E6; assay: as above

Compound	cell viability ([1]; 1 nM)	cell viability ([1]; 10 nM)	cell viability ([1]; 100 nM)	cell viability ([1]; 1000 nM)	cell viability ([1]; 10000 nM)	cell viability ([2]; 1 nM)	cell viability ([2]; 10 nM)	cell viability ([2]; 100 nM)	cell viability ([2]; 1000 nM)	cell viability ([2]; 10000 nM)	cell viability ([3]; 1 nM)	cell viability ([3]; 10 nM)	cell viability ([3]; 100 nM)	cell viability ([3]; 1000 nM)	cell viability ([3]; 10000 nM)	cell viability ([4]; 1 nM)	cell viability ([4]; 10 nM)	cell viability ([4]; 100 nM)	cell viability ([4]; 1000 nM)	cell viability ([4]; 10000 nM)	cell viability ([5]; 1 nM)	cell viability ([5]; 10 nM)	cell viability ([5]; 100 nM)	cell viability ([5]; 1000 nM)	cell viability ([5]; 10000 nM)	relative viability EC50 [6]	relative viability EC50 [7]	relative viability EC50 [8]	relative viability EC50 [9]	relative viability EC50 [10]	drug sensitivity score [11]	drug sensitivity score [12]	drug sensitivity score [13]	drug sensitivity score [14]	drug sensitivity score [15]
COc1cc(C(=O)NCc2ccc(OCCN(C)C)cc2)cc(OC)c1OC [trimethobenzamide]	95.9%	94.3%	99.2%	87.8%	99.7%	103%	84.6%	98.2%	93.6%	101%	98.2%	106%	99.5%	101%	107%	97.6%	93.8%	102%	97.4%	100%	96.1%	99.7%	93.2%	99.1%	99.9%	> 10 µM	> 10 µM	> 10 µM	> 10 µM	> 10 µM	0	0	0	0	0
O=C(O)c1ccccc1NCCc1ccccc1 [tromaril]	97%	97%	96.9%	96.2%	102%	106%	94.5%	99.3%	90.1%	106%	102%	101%	93.8%	104%	95%	102%	102%	101%	96.4%	101%	97.5%	99.5%	99%	102%	95.5%	> 10 µM	> 10 µM	> 10 µM	> 10 µM	> 10 µM	0	0	0	0	0
N#C/C(=C\c1ccc(O)c(O)c1)C(N)=O [tyrphostin-AG-99]	96.9%	92.5%	96.4%	92.2%	103%	102%	97.2%	103%	111%	112%	96.3%	112%	104%	110%	102%	100%	94.7%	102%	105%	100%	94%	98.6%	98.3%	93.4%	107%	> 10 µM	> 10 µM	> 10 µM	> 10 µM	> 10 µM	0	0	0	0	0
CCOC(N)=O [urethane]	93.5%	97.3%	98.4%	95.5%	102%	105%	103%	90.5%	107%	112%	95.8%	106%	85%	97.4%	105%	101%	102%	97.6%	104%	97.9%	98.9%	96.7%	98%	100%	104%	> 10 µM	> 10 µM	> 10 µM	> 10 µM	> 10 µM	0	0	0	0	0
CC(C)[C@H](N)C(=O)OCCOCn1cnc2c(=O)nc(N)[nH]c21 [valaciclovir]	103%	96%	104%	99.4%	104%	103%	98.8%	88.4%	111%	90.3%	103%	92.5%	104%	99.5%	101%	94%	101%	96%	105%	110%	90.1%	92%	86.5%	86.1%	105%	> 10 µM	> 10 µM	> 10 µM	> 10 µM	> 10 µM	0	0	0	0	0
COc1ccc(CCN(C)CCCN2CCc3cc(OC)c(OC)cc3CC2=O)cc1OC [zatebradine]	97.2%	90.5%	92.9%	99.6%	94.4%	97%	100%	92.9%	105%	94.2%	105%	99.4%	100%	103%	97.7%	101%	94.5%	99.1%	97.6%	97.6%	94.1%	98.4%	93.4%	96%	88%	> 10 µM	> 10 µM	> 10 µM	> 10 µM	> 10 µM	0	0	0	0	0
CN(C)CCc1c[nH]c2ccc(C[C@H]3COC(=O)N3)cc12 [zolmitriptan]	96.9%	102%	96.8%	110%	97.8%	92.2%	94.2%	95.2%	93.2%	97%	112%	111%	99%	87.6%	111%	99%	99.7%	96.8%	103%	96.9%	108%	98.3%	106%	106%	104%	> 10 µM	> 10 µM	> 10 µM	> 10 µM	> 10 µM	0	0	0	0	0
